Reference: patent publication US8465973B2, “Topical compositions containing phosphorylated polyphenols” (Estee Lauder Coordination Center N.V., priority 2004, dated 2013)
In brackets after ≈: the same amount, converted by molar mass. Each block holds one molecule with its values, some of them ahead of it.

Tests used:
[1] = system: extractable fraction of human SC D-squame tape strippings (acid phosphatase present on the skin); assay: Dephosphorylation of resveratrol^Pi by extractable fraction of stratum corneum D-squame tape strippings; conditions: resveratrol^Pi 0.22 mg/ml or 0.47 mM, FIG. 3; for correlation (r) of amount with incubation time: N=15
Description: D-squame tape strippings were collected on the inner lower arm of one panelist. […] The extractable fraction was transferred to another vial and mixed with resveratrol^Pi stock-solution. The concentration of resveratrol^Pi during the incubation was 0.22 mg/ml or 0.47 mM. At various incubation time points a 25 μl aliquot of the incubation mixture was diluted in 25 μl 10 mM o-phosphoric acid and 50 μl of MeOH and injected onto the HPLC system.

[2] = Visual (color) stability of a cosmetic formulation; type: physicochemical; conditions: for color of formulation: 0.1% resveratrol or 0.2% resveratrol^Pi in base formula
Description: Three base formulas are prepared, the control containing no resveratrol, the other two formulas being identical to the control but for one containing 0.1% unmodified resveratrol, and the other containing 0.2% of phosphorylated resveratrol (Resveratrol^Pi).
The color of the control base is white, and with addition of the resveratrols, it takes on a light beige color. Each formulation is observed once a week for a period of four weeks to determine the presence of a color change (indicative of changing color stability), under three different environmental conditions: 50° C., 4° C., and room temperature (RT).

[3] = Water solubility of resveratrol and resveratrol triphosphate; type: physicochemical
Description: The water solubility of resveratrol is tested at pH 7 in 1 mM potassium phosphate buffer at room temperature. Ten mg of resveratrol (M.W. 228.24) are suspended in 10 ml of buffer. This suspension, corresponding to a concentration of 1 g/l or 4.38 mM, is agitated for 24 hours in a rotary shaker at 25° C. in the dark. The sample is centrifuged at 14,000 rpm for 5 minutes and an OD of 6.26 is determined at 305 nm wavelength at which the ε mM of resveratrol has a value of 28.1. Assuming complete solubility of resveratrol, the OD that should have been obtained is 123.1 (4.38×28.1). With an observed OD of 6.26, the percentage of dissolved resveratrol is 5.1% (6.26×100/123.1) or […].
(§1) In contrast, the solubility and stability of the resveratrol triphosphate tested under the same conditions, in water of different pH, in the range of 4 to 9, at room temperature.

[4] = Stability of resveratrol triphosphate in solid and water solution form; type: physicochemical
Description: as §1

[5] = system: acid phosphatase from wheat germ; assay: Enzymatic dephosphorylation of resveratrol^Pi by acid phosphatase, HPLC analysis; conditions: resveratrol^Pi 1.6 mg/ml, acid phosphatase 0.056 U/ml, pH 5.5; FIG. 2
Description: The experimental conditions for the HPLC analysis of resveratrol are shown below.
Phosphorylated resveratrol was incubated in the presence of acid phosphatase from wheat germ (Sigma, P3627 lot 081K7071) in 0.147M (NH4)2SO4/0.81 mM MgCl2 pH 5.5. The concentration of resveratrol^Pi and acid phosphatase was 1.6 mg/ml and 0.056 U/ml respectively. Aliquots were taken at different time intervals and analysed by HPLC (conditions see above).

correlation (r) of amount with incubation time [1]: 0.99 | color of formulation ([2]; 1 week, 4° C.): lt beige | color of formulation ([2]; 1 week, 50° C.): lt beige | color of formulation ([2]; 1 week, room temperature): lt beige | color of formulation ([2]; 2 weeks, 4° C.): lt beige | color of formulation ([2]; 2 weeks, 50° C.): lt beige | color of formulation ([2]; 2 weeks, room temperature): lt beige | color of formulation ([2]; 3 weeks, 4° C.): lt beige | color of formulation ([2]; 3 weeks, room temperature): lt beige | color of formulation ([2]; 4 weeks, 4° C.): lt beige (sl lighter beige than RT) | color of formulation ([2]; 4 weeks, room temperature): lt beige/beige | solubility at 24 h ([3]; 25 °C, pH 7, aqueous buffer, thermodynamic from solid): 5.1 µg/mL (≈ 22.3 µM) | percentage of dissolved resveratrol ([3]; pH 7, 1 mM potassium phosphate buffer, 1 g/l suspension, 24 hours, 25° C., OD at 305 nm): 5.1%
Molecule: Oc1ccc(/C=C/c2cc(O)cc(O)c2)cc1 [resveratrol]
color of formulation ([2]; 3 weeks, 50° C.): lt beige (vsl darker with sl top oxidation) | color of formulation ([2]; 4 weeks, 50° C.): beige (sl darker than RT with top oxidation)

Molecule: resveratrol triphosphate
stability [4]: stable in both solid and water solution form for periods in excess of one year | correlation (r) of amount with incubation time [1]: −0.69 | conversion on incubation with extractable fraction of SC D-squame tape strippings (HPLC) ([1]; pH 5.6): decreased gradually | conversion on treatment with acid phosphatase (HPLC) [5]: decreased gradually | color development versus unmodified resveratrol ([2]; at the end of four weeks): less color development than the unmodified resveratrol | solubility ([3]; water of different pH, range 4 to 9, room temperature): > 30 % w/v

Molecule: resveratrol diphosphate
incubation time at which the maximum amount is reached [5]: around 85 minutes
